Source: PubChem BioAssay AID608 (Sanford-Burnham Center for Chemical Genomics, 2007)
The source made the active and inactive calls. No rule for the calls is given here.

target: Peptidyl-prolyl cis-trans isomerase FKBP1A (Homo sapiens) (UniProt P62942); assay: FKBP12 binders, biophysical, NMR detection (AID 608); settings: NMR binding, purified FKBP12
Sequence (P62942 whole entry, looked up): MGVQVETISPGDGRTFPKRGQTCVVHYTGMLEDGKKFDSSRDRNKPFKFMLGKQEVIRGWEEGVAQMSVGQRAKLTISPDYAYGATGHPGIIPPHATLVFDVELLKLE

Q: Which Kd does the source give for Cc1ncoc1C(=O)Nc1ccccc1C(N)=O here?
A: > 4 mM (inactive)

Q: How did the Kd turn out when O=C(Nc1c[nH]c(=O)[nH]c1=O)c1ccccc1F was run?
A: > 4 mM (inactive)

Q: With O=S(=O)(Cc1ccccc1Cl)Nc1ccccn1 as the compound, how does the Kd read?
A: > 4 mM (inactive)

Q: O=C(OC[C@H]1O[C@H](OC(=O)c2cc(O)c(O)c(OC(=O)c3cc(O)c(O)c(O)c3)c2)[C@H](OC(=O)c2cc(O)c(O)c(OC(=O)c3cc(O)c(O)c(O)c3)c2)[C@@H](OC(=O)c2cc(O)c(O)c(OC(=O)c3cc(O)c(O)c(O)c3)c2)[C@@H]1OC(=O)c1cc(O)c(O)c(OC(=O)c2cc(O)c(O)c(O)c2)c1)c1cc(O)c(O)c(OC(=O)c2cc(O)c(O)c(O)c2)c1 was tested. Which Kd did it give?
A: > 4 mM (inactive)

Q: Which Kd does the source give for COc1cccc(N2CCNCC2)c1 here?
A: > 4 mM (inactive)

Q: Which Kd does the source give for CCCCN1C(=O)C2CC/C(=N/O)CC2C1=O (centres undefined) here?
A: > 4 mM (inactive)

Q: How did the Kd turn out when CC(=O)N1CCc2ccccc2C1CC(=O)O (centres undefined) was run?
A: > 4 mM (inactive)

Q: CN1CCN(C(=O)c2ccccc2C(=O)O)CC1 was tested. Which Kd did it give?
A: > 4 mM (inactive)

Q: NCCCCNCCCN was tested. Which Kd did it give?
A: > 4 mM (inactive)

Q: O=CN1CCN(C(=O)c2ccccc2F)CC1 was tested. Which Kd did it give?
A: > 4 mM (inactive)

Q: Which Kd does the source give for Nc1nc2ncc(=O)[nH]c2c(=O)[nH]1 here?
A: > 4 mM (inactive)

Q: Cc1ccc(F)cc1NC(=O)c1ccc2c(c1)OCO2 was tested. Which Kd did it give?
A: > 4 mM (inactive)

Q: OCc1ccc2nsnc2c1 was tested. Which Kd did it give?
A: > 4 mM (inactive)

Q: C=C1C(=O)O[C@@H]2C3OC3(C)CC/C=C(\C)CC[C@@H]12 (some centres undefined) was tested. Which Kd did it give?
A: > 4 mM (inactive)

Q: How did the Kd turn out when Nc1cc(=O)[nH]c(SCC(=O)NC2CCCCC2)n1 was run?
A: > 4 mM (inactive)

Q: With CC1CCN(C(=S)c2ccccc2O)CC1 as the compound, how does the Kd read?
A: > 4 mM (inactive)

Q: How did the Kd turn out when Cc1cc(O)c2c(c1O)C(=O)c1c(O)cc(C)c(O)c1C2=O was run?
A: > 4 mM (inactive)

Q: For COCC(=O)NC1CC(C)(C)NC(C)(C)C1, which Kd is on record?
A: > 4 mM (inactive)

Q: Which Kd does the source give for O=C(Nc1cccnc1)c1c(F)cccc1F here?
A: > 4 mM (inactive)

Q: How did the Kd turn out when Cn1c(=O)c2ccccc2n(Cc2ccccc2F)c1=O was run?
A: > 4 mM (inactive)

Q: Which Kd does the source give for Cc1noc(-c2ccccc2)c1C(=O)O here?
A: > 4 mM (inactive)

Q: Which Kd does the source give for Cc1cc(N2CCN(C)CC2)ncn1 here?
A: > 4 mM (inactive)

Q: With NCc1cc2ccccc2s1 as the compound, how does the Kd read?
A: > 4 mM (inactive)

Q: Nc1ccc(N2CCOCC2)c(Cl)c1 was tested. Which Kd did it give?
A: > 4 mM (inactive)

Q: Which Kd does the source give for COc1ccc(-c2coc3c(OC)c(OC)cc(O)c3c2=O)cc1 here?
A: > 4 mM (inactive)

Q: Which Kd does the source give for CC(=O)c1c(O)n(C)c(=S)n(C)c1=O here?
A: > 4 mM (inactive)

Q: How did the Kd turn out when CC1=CC(=O)C2C(C)(C)CCC[C@]2(C)[C@@]1(O)CCc1ccoc1 (some centres undefined) was run?
A: > 4 mM (inactive)

Q: With CN=C(C)c1c(O)n(C)c(=S)n(C)c1=O as the compound, how does the Kd read?
A: > 4 mM (inactive)

Q: Cc1cc(C(=O)N2CCN(c3ncccn3)CC2)cs1 was tested. Which Kd did it give?
A: > 4 mM (inactive)

Q: For COC1=CC(=O)C[C@@H](C)[C@]12Oc1c(Cl)c(OC)cc(OC)c1C2=O, which Kd is on record?
A: > 4 mM (inactive)

Q: Which Kd does the source give for Cc1nc(SCC#N)c2c3c(sc2n1)CCC3 here?
A: > 4 mM (inactive)

Q: NC(=O)CSc1ccc(Br)cc1 was tested. Which Kd did it give?
A: > 4 mM (inactive)

Q: O=C1N/C(=N\c2ccccn2)SC1Cc1ccccc1 (centres undefined) was tested. Which Kd did it give?
A: > 4 mM (inactive)

Q: Cc1occc1C(=O)Nc1ccc2c(c1)OCO2 was tested. Which Kd did it give?
A: > 4 mM (inactive)

Q: How did the Kd turn out when Nc1nnc(SCc2cccnc2)s1 was run?
A: > 4 mM (inactive)

Q: How did the Kd turn out when Cc1occc1C(=O)NCc1ccccn1 was run?
A: > 4 mM (inactive)

Q: With COc1ccc(NS(=O)(=O)N2CCOCC2)cc1 as the compound, how does the Kd read?
A: > 4 mM (inactive)

Q: COc1ccc(-c2coc3cc(O)ccc3c2=O)c(OC)c1 was tested. Which Kd did it give?
A: > 4 mM (inactive)

Q: Which Kd does the source give for CC(=O)C1=C(O)C(=O)NC1c1ccccc1 (centres undefined) here?
A: > 4 mM (inactive)

Q: With Cc1oc(-c2ccccc2)cc1CO as the compound, how does the Kd read?
A: > 4 mM (inactive)

Q: For Cc1cc(NC(=O)c2cccc(S(C)(=O)=O)c2)no1, which Kd is on record?
A: > 4 mM (inactive)

Q: With O=c1[nH]cc(S(=O)(=O)Nc2ccccc2)c(=O)[nH]1 as the compound, how does the Kd read?
A: > 4 mM (inactive)

Q: O=C(Cc1cccs1)Nc1nncs1 was tested. Which Kd did it give?
A: > 4 mM (inactive)

Q: For COC(=O)C(O)[C@@H]1C2(C)C(=O)[C@@H](CC3=C4CC(=O)O[C@@H](c5ccoc5)[C@]4(C)CCC32)[C@H](OC(C)=O)C1(C)C (some centres undefined), which Kd is on record?
A: > 4 mM (inactive)

Q: With Oc1cc(O)c2c(c1)O[C@H](c1ccc(O)c(O)c1)[C@@H](O)C2 as the compound, how does the Kd read?
A: > 4 mM (inactive)

Q: With CCCSc1nnc2[nH]c(=O)cc(N)n12 as the compound, how does the Kd read?
A: > 4 mM (inactive)

Q: How did the Kd turn out when O=C1NCCCC1C(=O)N/N=C/c1ccccc1 (centres undefined) was run?
A: > 4 mM (inactive)

Q: For C=CCc1ccc(OC(=O)c2ccccc2)c(OC)c1, which Kd is on record?
A: > 4 mM (inactive)

Q: COc1ccc(C2=CC(=O)C=CC2=O)cc1 was tested. Which Kd did it give?
A: > 4 mM (inactive)

Q: O=C(/C(=N\O)n1cncn1)c1ccccc1Cl was tested. Which Kd did it give?
A: > 4 mM (inactive)

Q: C[C@@H]1CC[C@@]2(OC1)OC1CC3C4CC=C5C[C@@H](O)CC[C@]5(C)C4CC[C@]3(C)C1[C@@H]2C (some centres undefined) was tested. Which Kd did it give?
A: > 4 mM (inactive)

Q: How did the Kd turn out when COC1C(O)C(O)C(O)[C@@H](O)C1O (some centres undefined) was run?
A: > 4 mM (inactive)

Q: With OCc1cccs1 as the compound, how does the Kd read?
A: > 4 mM (inactive)

Q: O=C(NCc1cccnc1)c1ccccn1 was tested. Which Kd did it give?
A: > 4 mM (inactive)

Q: For O=C(O)c1ccnc2ccccc12, which Kd is on record?
A: > 4 mM (inactive)

Q: How did the Kd turn out when Nc1ccc(CN2CCS(=O)(=O)CC2)cc1 was run?
A: > 4 mM (inactive)

Q: Which Kd does the source give for O=C(c1cccc(-n2cnnn2)c1)N1CCOCC1 here?
A: > 4 mM (inactive)

Q: Which Kd does the source give for CC1CCC(N2CCN(c3ncccn3)CC2)CC1 (centres undefined) here?
A: > 4 mM (inactive)

Q: How did the Kd turn out when O=C(Nn1cnnc1)c1csc2ccccc12 was run?
A: > 4 mM (inactive)
